Reference: paper PMC7275043 (Nature Communications, 2020)

Experiments:
[1] = molecular target: PB2 (FLAG-tagged, A/WSN-FLAG) (Influenza A virus, UniProt P03427); type: cell-based, influenza A/WSN/1933(H1N1)
influenza B/Mem [2] = type: cell-based, influenza B/Memphis/12/97
[3] = molecular target: mouse PrP^C in L929 15.9 and CAD5 cells (Mus musculus, UniProt P04925)
[4] = system: influenza A strains (H1N1, H3N2, H3N3, H3N8, H5N1); type: cell-based
[5] = mouse, in vivo, iv, 10 mg/kg
influenza B/Mem [6] = system: influenza B/Mem; set-up: species or system BALB/c mice; conditions: mouse, in vivo, iv, 2.5 mg/kg
[7] = system: PB2CB from influenza B/Mem (PB2IBV); type: biochemical
[8] = system: influenza B virus strains (B/Mem, B/Wis, B/Bris); type: cell-based
influenza B/Mem [9] = type: cell-based, influenza B/Memphis/12/97; remark: listed apart in the source
[10] = system: ZIKV (African strain MR766); test: microbe, parasite or virus in culture; type: cell-based, Zika virus
[11] = system: influenza A strains: H1N1 strain A/PR8 and H5N1 strain A/NIBRG-14; type: cell-based
[12] = molecular target: the molecule itself

Sequence of PB2 (FLAG-tagged, A/WSN-FLAG) (P03427 whole entry, looked up): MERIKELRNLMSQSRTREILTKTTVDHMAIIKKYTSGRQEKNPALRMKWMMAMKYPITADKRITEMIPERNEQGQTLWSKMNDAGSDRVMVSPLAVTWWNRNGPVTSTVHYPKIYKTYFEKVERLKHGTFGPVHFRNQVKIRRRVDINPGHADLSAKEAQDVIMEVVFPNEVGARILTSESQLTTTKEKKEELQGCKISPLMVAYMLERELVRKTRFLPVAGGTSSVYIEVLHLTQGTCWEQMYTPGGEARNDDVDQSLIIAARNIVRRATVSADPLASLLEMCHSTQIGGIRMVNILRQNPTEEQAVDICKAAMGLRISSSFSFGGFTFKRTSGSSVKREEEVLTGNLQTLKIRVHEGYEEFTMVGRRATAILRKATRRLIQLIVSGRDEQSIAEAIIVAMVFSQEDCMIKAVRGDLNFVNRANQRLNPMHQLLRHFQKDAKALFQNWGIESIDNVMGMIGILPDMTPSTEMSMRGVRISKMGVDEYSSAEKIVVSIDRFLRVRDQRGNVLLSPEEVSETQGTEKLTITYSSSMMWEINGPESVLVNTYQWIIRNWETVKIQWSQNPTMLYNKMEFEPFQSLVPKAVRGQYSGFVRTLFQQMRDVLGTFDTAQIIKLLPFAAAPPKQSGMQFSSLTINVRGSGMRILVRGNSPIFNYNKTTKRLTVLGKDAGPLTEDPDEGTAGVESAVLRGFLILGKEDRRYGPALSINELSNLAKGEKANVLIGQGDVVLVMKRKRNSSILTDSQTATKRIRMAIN
Sequence of mouse PrP^C in L929 15.9 and CAD5 cells (P04925 23-230 limits assumed): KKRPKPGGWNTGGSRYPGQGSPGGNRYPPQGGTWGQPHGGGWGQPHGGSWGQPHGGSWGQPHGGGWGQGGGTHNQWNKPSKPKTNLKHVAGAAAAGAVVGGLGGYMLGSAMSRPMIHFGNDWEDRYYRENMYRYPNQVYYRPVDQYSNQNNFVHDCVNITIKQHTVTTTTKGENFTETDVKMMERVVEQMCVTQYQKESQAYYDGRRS

Ac-WDLIQLIVSDGSDLIQLIVSD-NH2 [12B]
soluble PB2 in infected cells [1]: reduction of soluble PB2 | aspecific toxic effects on MDCK cells (MDCK cells): no aspecific toxic effects were observed | protection against cytopathic effects of influenza B (influenza B/Mem [2]): no protection against cytopathic effects | aspecific toxic effects on HEK 293T cells (HEK 293T cells): no aspecific toxic effects were observed | conversion of PrP to the aggregated prion state (PrP^SC) [3]: incapable to convert PrP | antiviral activity on influenza A strains with APR polymorphisms [4]: retains activity against all these influenza A strains | blood analysis and histopathological evaluation of all major organs [5]: revealed no abnormalities | influenza B replication in the murine infection model (viral load in lungs) (influenza B/Mem [6]): not affected | effect on aggregation or conformational stability of PB2IBV (Th-T, ANS) [7]: showed no effect on the aggregation or conformational stability | antiviral activity in time of addition assays and pretreatment of influenza B virion particles [8]: showed no antiviral activity | effect on replication of influenza B virus strains [8]: did not interfere with the replication | influenza B replication in multicycle replication assay (influenza B/Mem [9]): unaffected | interference with ZIKV replication [10]: no interference with ZIKV replication is observed

C[C@@]1(O)[C@H](O)[C@@H](CO)O[C@H]1n1ccc2c(N)ncnc21 [7-DMA, 7-deaza-2′-C-methyladenosine, reference compound]
aspecific toxicity on the mammalian host cell (Vero E6 cells): did not originate from aspecific toxicity | IC50 ([10]; Zika virus, Vero C1008, 48 h, n = 3, read-out: IC50, fraction of ZIKV-infected cells): 4.74 ± 0.31 µM

Ac-RLIQLIVSRPPRLIQLIVSR-NH2 [compound 12]
aspecific cytotoxic effects on MDCK cells (MDCK cells): did not originate from aspecific cytotoxic effects | amount of newly produced virus (TCID50 titration), antiviral screen [11]: showed the most pronounced effect

B1: peptide 12B (peptide)
peptide: WDLIQLIVSDGSDLIQLIVSD
notes: also called amyloid peptide 12B; synthetic amyloid 12B; source: synthetic peptide
binding result [12]: binds
